Test results published in US5091370A, “Angolamycin derivatives” (Sanraku Incorporated, priority 1989, dated 1992).

Assay: Stability test against a mouse liver homogenate
Type: in vitro ADME, ICR-strain mice
Settings: mouse liver homogenate supernatant, pH 7.2, 37° C., unchanged product remaining by TLC/chromatoscanner (283 nm), read-out: Residual activity ratio (%)
Method: The livers of ICR-strain mice were homogenized together with 5 times their amount of 0.1M phosphate buffer (pH 7.2) in a Potter homogenizer (3000 rpm, 10 minutes). One ml of 500 micrograms/ml of a test compound (10% methanol water) was added to the supernatant (1 ml) of the homogenate, and reacted at 37° C. for 1 hour. The mixture was heated at 100° C. of 3 minutes. Then, 1 ml of 0.1M phosphate buffer (pH 9.0) was added, and the mixture was extracted with 1 ml of ethyl acetate, organic layer was subjected to silica gel thin-layer chromatography (chloroform/methanol/ammonia=15/1.2/0.1), and by a chromatoscanner (283 nm), the ratio of an unchanged product and a hydrolyzed product formed was determined. The amount of the unchanged product remaining was expressed by percentage.

| SMILES | remaining at 1 h [%] |
| --- | --- |
| CCC1OC(=O)CC(O)C(C)C(OC2CC(N(C)C)C(OC3CC(C)(O)C(OC(=O)Cc4ccc(C(C)=O)cc4)C(C)O3)C(C)O2)C(CC=O)CC(C)C(=O)/C=C/C2(C)OC2C1COC1OC(C)C(O)C(OC)C1OC (stereo not drawn) [Compound (1), 4"-O-(p-acetylphenylacetyl)-angolamycin] | 94 |
| CCC1OC(=O)CC(O)C(C)C(OC2CC(N(C)C)C(OC3CC(C)(O)C(OC(=O)Cc4ccc(OC)cc4)C(C)O3)C(C)O2)C(CC=O)CC(C)C(=O)/C=C/C2(C)OC2C1COC1OC(C)C(O)C(OC)C1OC (stereo not drawn) [Compound (2), 4"-O-(p-methoxyphenylacetyl)-angolamycin] | 95 |
| CCC1OC(=O)CC(O)C(C)C(OC2CC(N(C)C)C(OC3CC(C)(O)C(OC(=O)CC(C)C)C(C)O3)C(C)O2)C(CC=O)CC(C)C(=O)/C=C/C2(C)OC2C1COC1OC(C)C(O)C(OC)C1OC (stereo not drawn) [Control compound (1), 4"-O-isovaleryl angola-mycin, reference compound] | 55 |
